Measurements: US4054659A, “5,7 Dihydroxy-1-(trimethoxybenzyl)-1,2,3,H-tetrahydroisoquinolines and use thereof” (Tanabe Seiyaku Co., Ltd., priority 1974, dated 1977)

What was measured:
[1] = tested on: serotonin-creatinin sulfate-induced bronchoconstriction; experiment: Preventive effects against serotonin-creatinin sulfate-induced bronchoconstriction (bronchodilating activity) in anesthetized cats; format: in vivo; details: for Preventive effects against bronchoconstriction: cats, 10 μg/kg, duodenum
Source text: The 5,7-dihydroxy-tetrahydroisoquinoline derivative (I) of the present invention or a pharmaceutically acceptable acid addition salt thereof has potent bronchodilating activity and is useful as a bronchodilator. Moreover, as compared with 6,7-dihydroxy-1-(3,4,5-trimethoxybenzyl)-1,2,3,4-tetrahydroisoquinoline, the 5,7-dihydroxy-tetrahydroisoquinoline derivative (I) of the present invention is more useful because of the longer duration of its point bronchodilating activity and/or lesser side effects (e.g., lesser increase of the heart rate). […] However, the bronchodilating activity of the former lasts for more than 3.5 hours at its maximum level, whereas the latter decreases to about 1/3 the maximum level after 3.5 hours.
(§1) Cats were anesthetized with sodium pentobarbital (40 mg/.kg, i.p.). Under artificial respiration (13 - 15 ml of air/kg/stroke, 30 strokes/minute) thereof, the cats were immobilized by intraveous injection of gallamine triethyodide (8 mg/kg). Serotonin.creatinin sulfate (=bronchoconstrictor) was injected intravenously to the cats at the dose of 20 μg/kg, and the intratracheal pressure was measured by means of a pressure transducer. Then, each one of test compounds was administered to the duodenum of the cats at the dose of 10 μg/kg, and the intratracheal pressure and the heart rate were measured with the passage of time. The bronchodilating activity was estimated by the preventive effects (%) of each test compound against bronchoconstriction.

heart rate = experiment: Increase of heart rate after duodenal administration in anesthetized cats; format: in vivo; details: 10 μg/kg, duodenum
Method: as §1

[2] = 50% lethal dose (LD50) by intravenous injection to mice; details: mouse, in vivo
Source text: The toxicity of the 5,7-dihydroxytetrahydroisoquinoline derivative (I) of the present invention is considerably low.

[3] = 15 minutes after administration
[4] = 30 minutes after administration
[5] = 45 minutes after administration
[6] = 60 minutes after administration
[7] = 75 minutes after administration
[8] = 90 minutes after administration
[9] = 120 minutes after administration
[10] = 150 minutes after administration
[11] = 180 minutes after administration
[12] = 210 minutes after administration

Structure (SMILES): COc1cc(CC2NCCc3c(O)cc(O)cc32)cc(OC)c1OC.Cl (stereo not shown) [A, 5,7-dihydroxy-1-(3,4,5-trimethoxybenzyl)-1,2,3,4-tetrahydroisoquinoline hydrochloride]
- Preventive effects against bronchoconstriction ([1]; 5 minutes after administration): 8.5 ± 3.2%
- Preventive effects against bronchoconstriction [1, 3]: 47.9 ± 8.5%
- Preventive effects against bronchoconstriction [1, 4]: 63.5 ± 9.9%
- Preventive effects against bronchoconstriction [1, 5]: 69.7 ± 8.7%
- Preventive effects against bronchoconstriction [1, 6]: 71.1 ± 7.1%
- Preventive effects against bronchoconstriction [1, 7]: 70.7 ± 6.8%
- Preventive effects against bronchoconstriction [1, 8]: 72.5 ± 6.1%
- Preventive effects against bronchoconstriction [1, 9]: 71.0 ± 5.6%
- Preventive effects against bronchoconstriction [1, 10]: 70.2 ± 6.4%
- Preventive effects against bronchoconstriction [1, 11]: 69.1 ± 5.7%
- Preventive effects against bronchoconstriction [1, 12]: 64.6 ± 7.4%
- Duration of bronchodilating activity at its maximum level ([1]; after duodenal administration): more than 3.5 hours
- Maximum preventive effects compared with 6,7-dihydroxy-1-(3,4,5-trimethoxybenzyl)-1,2,3,4-tetrahydroisoquinoline (hydrochloride) ([1]; duodenal administration): almost the same maximum preventive effects
- Increase of heart rate (Number of heart beats increased/minute) (heart rate; 5 minutes after administration): 1.3 ± 0.3 heart beats increased/minute
- Increase of heart rate (Number of heart beats increased/minute) (heart rate; [3]): 10.6 ± 3.4 heart beats increased/minute
- Increase of heart rate (Number of heart beats increased/minute) (heart rate; [4]): 22.2 ± 6.5 heart beats increased/minute
- Increase of heart rate (Number of heart beats increased/minute) (heart rate; [5]): 21.3 ± 5.2 heart beats increased/minute
- Increase of heart rate (Number of heart beats increased/minute) (heart rate; [6]): 20.0 ± 4.4 heart beats increased/minute
- Increase of heart rate (Number of heart beats increased/minute) (heart rate; [7]): 18.7 ± 3.8 heart beats increased/minute
- Increase of heart rate (Number of heart beats increased/minute) (heart rate; [8]): 17.8 ± 3.0 heart beats increased/minute
- Increase of heart rate (Number of heart beats increased/minute) (heart rate; [9]): 17.2 ± 2.3 heart beats increased/minute
- Increase of heart rate (Number of heart beats increased/minute) (heart rate; [10]): 15.2 ± 2.1 heart beats increased/minute
- Increase of heart rate (Number of heart beats increased/minute) (heart rate; [11]): 13.7 ± 1.4 heart beats increased/minute
- Increase of heart rate (Number of heart beats increased/minute) (heart rate; [12]): 12.0 ± 1.4 heart beats increased/minute
- LD50 [2]: ~51 mg/kg

Structure (SMILES): COc1cc(CC2NCCc3cc(O)c(O)cc32)cc(OC)c1OC.Cl (stereo not shown) [B, 6,7-dihydroxy-1-(3,4,5-trimethoxybenzyl)-1,2,3,4-tetrahydroisoquinolin hydrochloride, reference compound]
- Preventive effects against bronchoconstriction ([1]; 5 minutes after administration): 21.1 ± 8.6%
- Preventive effects against bronchoconstriction [1, 3]: 71.2 ± 7.6%
- Preventive effects against bronchoconstriction [1, 4]: 77.6 ± 5.2%
- Preventive effects against bronchoconstriction [1, 5]: 73.9 ± 2.6%
- Preventive effects against bronchoconstriction [1, 6]: 67.2 ± 3.4%
- Preventive effects against bronchoconstriction [1, 7]: 62.3 ± 5.1%
- Preventive effects against bronchoconstriction [1, 8]: 54.7 ± 6.0%
- Preventive effects against bronchoconstriction [1, 9]: 45.5 ± 7.5%
- Preventive effects against bronchoconstriction [1, 10]: 38.0 ± 8.7%
- Preventive effects against bronchoconstriction [1, 11]: 31.6 ± 9.5%
- Preventive effects against bronchoconstriction [1, 12]: 26.0 ± 7.4%
- Bronchodilating activity remaining after 3.5 hours, as fraction of the maximum level ([1]; after 3.5 hours, duodenal administration): about 1/3
